Patent US20210361688A1 (priority 2020, published 2021)

Columns and labels:
[1] = system: pseudorabies virus (PRV); settings: mouse, in vivo; cited from earlier work
[2] = Estimated ivermectin concentration delivered into the respiratory pathways per nebulization; set-up: species or system human; settings: about 10% of nebulized solution reaches the respiratory pathways; approx. 3 mg into 150 cc dead space
Protocol: 3 mL of the solution was administered to the subject directly into the lungs in the form of an inhalable mist.

[3] = cited from earlier work
[4] = system: SARS-CoV-2 isolate Australia/VIC01/2020; settings: cited from earlier work
[5] = ivermectin 5 μM from 2 hours post-infection, 24 h, Vero-hSLAM cells

ivermectin
survival in PRV-infected mice [1]: increase survival | ivermectin delivered per cc of dead space per nebulization [2]: approximately 0.02 mg per cc | tolerability of high doses ([3]; adults or children): well tolerated | maximum plasma concentration ([3]; humans, highest reported dose of approximately 1700 μg/kg): 0.28 µM | IC50 concentration necessary to inhibit viral replication ([4]; as quoted in Example 2): 0.00175 mg/cc | reduction in viral RNA versus DMSO control, cell associated viral RNA (total virus) [4, 5]: 99.8% | reduction in viral RNA versus DMSO control, supernatant (released virions) [4, 5]: 93% | fold reduction of viral RNA ([4]; ivermectin 5 μM, by hour 48, effect maintained at 72 hours): 5000 fold | IC50 ([4]; serial dilutions of ivermectin, Vero-hSLAM cells, read-out: IC50 against SARS-CoV-2): ~2000 nM
